Where no end group is shown, it is not given here. HA = HA epitope tag
Tests used:
[1] = test system: FUS droplets (MBP:FUS/MBP:FUS:EGFP) / Kapβ2; assay: Fluorescence microscopy of FUS droplets; type: biochemical; settings: 16 μM Kapβ2, 16 μM Kapβ2–M9M complex, 50 μM PR20, repeated three times
[2] = test system: GFP:hnRNPA2-LC / mCh:hnRNPA2-LC hydrogel; assay: Hydrogel binding assay, hnRNPA2-LC; type: biochemical; settings: 1.0 µM GFP:hnRNPA2-LC, Kapβ2 1.0 µM, PR20 1.0 µM
Excerpt: (§1) Expression plasmids for recombinant proteins (GFP/mCherry fusion LC-domain of FUS (residue 2–214, GFP/mCh:FUS-LC) and GFP/mCherry fusion LC-domain of hnRNPA2 (residue 181–341, GFP/mCh:hnRNPA2-LC)) were obtained from the Steven L. McKnight Laboratory. Expression plasmid for GFP:FUS-LC fusion NLS (residue 501–526, GFP:FUS-LC:NLS), mCh fusion LC-domain of TDP43 (residue 262–414, mCh:TDP43-LC), and GFP-tagged cNLS (residue 78–99) fusion TDP43-LC (GFP:cNLS:TDP43-LC) were constructed using In-Fusion HD Cloning Kit (Takara Bio, Inc.). GFP/mCh:FUS-LC, GFP:FUS-LC:NLS, and GFP/mCh:hnRNPA2-LC were expressed in E. coli BL21(DE3) cells with 0.5 mM IPTG at 20 °C overnight and purified by Ni-NTA Agarose (FUJIFILM Wako Pure Chemical Corporation), as described in a previous study. GFP:cNLS:TDP43-LC were expressed with 1.0 mM IPTG at 37 °C for 3 h and mCh:TDP43-LC were expressed with 0.5 mM IPTG at 16 °C overnight. GFP:cNLS:TDP43-LC and mCh:TDP43-LC were purified by Ni-NTA as described in a previous study[48] with some modifications. […] Relative intensity of GFP signals across the hydrogel droplets were measured in triplicate by using the profile plot mode in ImageJ. […]

[3] = test system: GFP:cNLS:TDP43-LC / mCh:TDP43-LC hydrogel; assay: Hydrogel binding assay, TDP43-LC with Impα/β1; type: biochemical; settings: 1.0 µM GFP:cNLS:TDP43-LC, Impα/β1 1.0 µM/1.0 µM, PR20 1.0 µM
Excerpt: as §1

[4] = test system: Kapβ2 / MBP:FUS-NLS complex; assay: Competitive pull-down: release of MBP:FUS-NLS from GST:Kapβ2; type: binding; settings: MBP:FUS-NLS (501–526) : GST:Kapβ2 1:1, PR20:HA competitor; repeated twice
Excerpt: Unbound proteins were washed three times with the buffer.

PR20: twenty repeats of proline:arginine with an HA epitope tag at the C terminus, synthesized by SCRUM, Inc. (PRPRPRPRPRPRPRPRPRPRPRPRPRPRPRPRPRPRPRPR-{HA})
Effect on FUS droplets (microscopy) [1]: not melted in the presence of PR20 | Effect on ability of Kapβ2 to block hydrogel binding of hnRNPA2-LC [2]: inhibited the ability of Kapβ2 | Effect on ability of Impα/β1 to modify phase transition of TDP43-LC [3]: inhibited the ability of other NIRs Impα/β1 in modifying the phase transition of LC-domain of TDP43 | Release of MBP:FUS-NLS from Kapβ2 [4]: release of MBP:FUS-NLS from Kapβ2
